Where two headings read alike, the source gives them in different places.
Experiments:
Assay type in all cases: cell-based, human
A549/ATCC = system: A549/ATCC
Procedure: (§1) (aR)-6, (aS)-6, (aS)-iso -6, and (aR)-iso -6 were submitted to the 60 Cell Screen panel and evaluated at 5 doses (100 μM, 10 μM, 1 μM, 0.1 μM, and 0.01 μM). […] The complete report from this submission is available at the publisher’s Web site as a separate Supporting Information file. For COMPARE analysis, TGI levels of response for (aR)-DM-MTC (6) and (aS)-iso-DM-MTC were compared to those of several established tubulin inhibitors previously tested in the NCI-60 screen.

CCRF-CEM = system: CCRF-CEM
Procedure: as §1

COLO 205 = system: COLO 205
Procedure: as §1

EKVX = system: EKVX
Procedure: as §1

HCC-2998 = system: HCC-2998
Procedure: as §1

HCT-15 = system: HCT-15
Procedure: as §1

HOP-62 = system: HOP-62
Procedure: as §1

HS 578T = system: HS 578T
Procedure: as §1

IGROV1 = system: IGROV1
Procedure: as §1

M14 = system: M14
Procedure: as §1

MDA-MB-231/ATCC = system: MDA-MB-231/ATCC
Procedure: as §1

MDA-MB-435 = system: MDA-MB-435
Procedure: as §1

NCI-H226 = system: NCI-H226
Procedure: as §1

NCI-H522 = system: NCI-H522
Procedure: as §1

OVCAR-4 = system: OVCAR-4
Procedure: as §1

RPMI-8226 = system: RPMI-8226
Procedure: as §1

RXF 393 = system: RXF 393
Procedure: as §1

SF-295 = system: SF-295
Procedure: as §1

SF-539 = system: SF-539
Procedure: as §1

SK-MEL-2 = system: SK-MEL-2
Procedure: as §1

SK-OV-3 = system: SK-OV-3
Procedure: as §1

SNB-75 = system: SNB-75
Procedure: as §1

SW-620 = system: SW-620
Procedure: as §1

U251 = system: U251
Procedure: as §1

UACC-257 = system: UACC-257
Procedure: as §1

UACC-62 = system: UACC-62
Procedure: as §1

UO-31 = system: UO-31
Procedure: as §1

Structure (SMILES): COc1cc(C)c(-c2ccc(=O)c(OC)cc2C)c(OC)c1OC (single isomer, unassigned) [(aS)-iso-6]
- Log10GI50 (A549/ATCC): -4.45 Molar
- Log10LC50 (A549/ATCC): > -4.00 Molar
- Log10TGI (A549/ATCC): > -4.00 Molar
- GI50 (A549/ATCC; Homo sapiens): 35.5 µM
- Log10GI50 (A549/ATCC; […]): -4.45 Molar
- Log10GI50 (CCRF-CEM): -4.53 Molar
- Log10LC50 (CCRF-CEM): > -4.00 Molar
- Log10TGI (CCRF-CEM): > -4.00 Molar
- GI50 (CCRF-CEM; Homo sapiens): 29.5 µM
- Log10GI50 (CCRF-CEM; […]): -4.53 Molar
- Log10GI50 (COLO 205): -4.66 Molar
- Log10LC50 (COLO 205): > -4.00 Molar
- Log10TGI (COLO 205): -4.23 Molar
- GI50 (COLO 205; Homo sapiens): 21.9 µM
- Log10GI50 (COLO 205; […]): -4.66 Molar
- Log10GI50 (EKVX): -4.18 Molar
- Log10LC50 (EKVX): > -4.00 Molar
- Log10TGI (EKVX): > -4.00 Molar
- GI50 (EKVX; Homo sapiens): 66.1 µM
- Log10GI50 (EKVX; […]): -4.18 Molar
- Log10GI50 (HCC-2998): -4.48 Molar
- Log10LC50 (HCC-2998): > -4.00 Molar
- Log10TGI (HCC-2998): > -4.00 Molar
- GI50 (HCC-2998; Homo sapiens): 33.1 µM
- Log10GI50 (HCC-2998; […]): -4.48 Molar
- Log10GI50 (HCT-15): -4.89 Molar
- Log10LC50 (HCT-15): > -4.00 Molar
- Log10TGI (HCT-15): > -4.00 Molar
- GI50 (HCT-15; Homo sapiens): 12.9 µM
- Log10GI50 (HCT-15; […]): -4.89 Molar
- Log10GI50 (HOP-62): -4.46 Molar
- Log10LC50 (HOP-62): > -4.00 Molar
- Log10TGI (HOP-62): > -4.00 Molar
- GI50 (HOP-62; Homo sapiens): 34.7 µM
- Log10GI50 (HOP-62; […]): -4.46 Molar
- Log10GI50 (HS 578T): -4.80 Molar
- Log10LC50 (HS 578T): > -4.00 Molar
- Log10TGI (HS 578T): -4.19 Molar
- GI50 (HS 578T; Homo sapiens): 15.8 µM
- Log10GI50 (HS 578T; […]): -4.8 Molar
- Log10GI50 (IGROV1): -4.32 Molar
- Log10LC50 (IGROV1): > -4.00 Molar
- Log10TGI (IGROV1): > -4.00 Molar
- GI50 (IGROV1; Homo sapiens, IGROV-1): 47.9 µM
- Log10GI50 (IGROV1; […]): -4.32 Molar
- Log10GI50 (M14): -4.76 Molar
- Log10LC50 (M14): > -4.00 Molar
- Log10TGI (M14): > -4.00 Molar
- GI50 (M14; Homo sapiens): 17.4 µM
- Log10GI50 (M14; […]): -4.76 Molar
- Log10GI50 (MDA-MB-231/ATCC): -4.63 Molar
- Log10LC50 (MDA-MB-231/ATCC): > -4.00 Molar
- Log10TGI (MDA-MB-231/ATCC): > -4.00 Molar
- GI50 (MDA-MB-231/ATCC; Homo sapiens): 23.4 µM
- Log10GI50 (MDA-MB-231/ATCC; […]): -4.63 Molar
- Log10GI50 (MDA-MB-435): -5.46 Molar
- Log10LC50 (MDA-MB-435): > -4.00 Molar
- Log10TGI (MDA-MB-435): -4.81 Molar
- GI50 (MDA-MB-435; Homo sapiens): 3.47 µM
- Log10GI50 (MDA-MB-435; […]): -5.46 Molar
- Log10GI50 (NCI-H226): -4.06 Molar
- Log10LC50 (NCI-H226): > -4.00 Molar
- Log10TGI (NCI-H226): > -4.00 Molar
- GI50 (NCI-H226; Homo sapiens): 87.1 µM
- Log10GI50 (NCI-H226; […]): -4.06 Molar
- Log10GI50 (NCI-H522): -4.69 Molar
- Log10LC50 (NCI-H522): > -4.00 Molar
- Log10TGI (NCI-H522): -4.15 Molar
- GI50 (NCI-H522; Homo sapiens): 20.4 µM
- Log10GI50 (NCI-H522; […]): -4.69 Molar
- Log10GI50 (OVCAR-4): -4.04 Molar
- Log10LC50 (OVCAR-4): > -4.00 Molar
- Log10TGI (OVCAR-4): > -4.00 Molar
- GI50 (OVCAR-4; Homo sapiens): 91.2 µM
- Log10GI50 (OVCAR-4; […]): -4.04 Molar
- Log10GI50 (RPMI-8226): -4.38 Molar
- Log10LC50 (RPMI-8226): > -4.00 Molar
- Log10TGI (RPMI-8226): > -4.00 Molar
- GI50 (RPMI-8226; Homo sapiens): 41.7 µM
- Log10GI50 (RPMI-8226; […]): -4.38 Molar
- Log10GI50 (RXF 393): -4.68 Molar
- Log10LC50 (RXF 393): > -4.00 Molar
- Log10TGI (RXF 393): -4.12 Molar
- GI50 (RXF 393; Homo sapiens): 20.9 µM
- Log10GI50 (RXF 393; […]): -4.68 Molar
- Log10GI50 (SF-295): -4.64 Molar
- Log10LC50 (SF-295): > -4.00 Molar
- Log10TGI (SF-295): > -4.00 Molar
- GI50 (SF-295; Homo sapiens): 25.7 µM
- Log10GI50 (SF-295; […]): -4.59 Molar
- Log10GI50 (SF-539): -4.59 Molar
- Log10LC50 (SF-539): > -4.00 Molar
- Log10TGI (SF-539): > -4.00 Molar
- GI50 (SF-539; Homo sapiens): 29.5 µM
- Log10GI50 (SF-539; […]): -4.53 Molar
- Log10GI50 (SK-MEL-2): -4.69 Molar
- Log10LC50 (SK-MEL-2): > -4.00 Molar
- Log10TGI (SK-MEL-2): > -4.00 Molar
- GI50 (SK-MEL-2; Homo sapiens): 20.4 µM
- Log10GI50 (SK-MEL-2; […]): -4.69 Molar
- Log10GI50 (SK-OV-3): -4.57 Molar
- Log10LC50 (SK-OV-3): > -4.00 Molar
- Log10TGI (SK-OV-3): > -4.00 Molar
- GI50 (SK-OV-3; Homo sapiens): 26.9 µM
- Log10GI50 (SK-OV-3; […]): -4.57 Molar
- Log10GI50 (SNB-75): -5.27 Molar
- Log10LC50 (SNB-75): > -4.00 Molar
- Log10TGI (SNB-75): -4.36 Molar
- GI50 (SNB-75; Homo sapiens): 30.9 µM
- Log10GI50 (SNB-75; […]): -4.51 Molar
- Log10GI50 (SW-620): -4.55 Molar
- Log10LC50 (SW-620): > -4.00 Molar
- Log10TGI (SW-620): > -4.00 Molar
- GI50 (SW-620; Homo sapiens): 30.9 µM
- Log10GI50 (SW-620; […]): -4.51 Molar
- Log10GI50 (U251): -4.51 Molar
- Log10LC50 (U251): > -4.00 Molar
- Log10TGI (U251): > -4.00 Molar
- GI50 (U251; Homo sapiens, U-251): 18.8 µM
- Log10GI50 (U251; […]): -4.725 Molar
- Log10GI50 (UACC-257): -4.15 Molar
- Log10LC50 (UACC-257): > -4.00 Molar
- Log10TGI (UACC-257): > -4.00 Molar
- GI50 (UACC-257; Homo sapiens): 70.8 µM
- Log10GI50 (UACC-257; […]): -4.15 Molar
- Log10GI50 (UACC-62): -4.78 Molar
- Log10LC50 (UACC-62): > -4.00 Molar
- Log10TGI (UACC-62): > -4.00 Molar
- GI50 (UACC-62; Homo sapiens): 16.6 µM
- Log10GI50 (UACC-62; […]): -4.78 Molar
- Log10GI50 (UO-31): -4.34 Molar
- Log10LC50 (UO-31): > -4.00 Molar
- Log10TGI (UO-31): > -4.00 Molar
- GI50 (UO-31; Homo sapiens): 45.7 µM
- Log10GI50 (UO-31; […]): -4.34 Molar

— publication PMC12150326 (The Journal of Organic Chemistry, 2025)
